In test [1] the test system is E. coli JM105. The experiment in a line: Chronocoulometric mediated respiration assay (ferricyanide). It is filed as cell-based. How it is done: At this time, a platinum disk working electrode, Ag/AgCl reference electrode and a stainless steel auxiliary electrode are inserted, and a potential of +0.50 V is applied using a potentiostat. The measured current is integrated over time to produce a plot of total charge against time. The change in total charge is measured between 60 and 120 seconds after the potential is applied. The same procedures for E. coli growth, incubation with ferricyanide and antibiotic, and measurement were used in this Example as were used in Example 2. One antibiotic was studied for the effect of concentration, and this was chloramphenicol.

In test [2] the test system is Clostridium sporogenes (ATCC 8075). Briefly: Mediated chronocoulometric respiration assay (ferricyanide + DCIP, anaerobic). It is filed as cell-based. As to conditions: for Mediated Chronocoulometric Respiratory Activity Remaining, Percent: average of two measurements, 20 min + 20 min at 37 C under nitrogen. How it is done:
This organism was chosen as a typical gram-positive, obligate anaerobe. Growth under anaerobic conditions was accomplished using a similar medium to that used for E. coli except that the concentrations of yeast extract and tryptone were doubled and the concentration of glucose was five-fold lower for the C. sporogenes growth. Assay conditions were the same as in Example 2, with the following exceptions. The incubation of 20 μL of the bacterial suspension with 130 μL of either the blank buffer or the chloramphenicol or lysozyme solution was done for 20 min at 37 C. Mediator solution (150 μL) containing 0.10 M ferricyanide and 10 μM 2,6-dichlorophenolindophenol (DCIP) was then added and the mixture was allowed to incubate for another 20 min at 37 C, giving final concentrations of 0.050 M ferricyanide and 5 μM DCIP, respectively. All manipulations were performed under a stream of nitrogen, to ensure the absence of oxygen, which is known to inhibit the growth of C. sporogenes. Measurement by chronocoulometry was performed in an identical manner as in Example 2.

Test [3] shares this test system. As to conditions: see Bergey; cited from earlier work.
The subject of test [4] is E. coli JM105. Briefly: Integrated current (charge) measurement after incubation with lysozyme or EDTA. It is filed as cell-based. The note with it: for Charge: single measurements, charge between 60 and 120 s. How it is done: E. coli JM105 was grown in the same manner as in Example 1. The assay procedure used to determine the effect of lysozyme on mediated electrochemical respiration rate was as follows. […] Ferricyanide solution (270 μL) was then added so that the final ferricyanide concentration was 50 mM. These solutions were incubated at 37 C for 10 min. Each sample was then analyzed electrochemically using a Pt working electrode, Ag/AgCl reference electrode and a stainless steel auxilliary electrode, with an applied potential of +0.500 V. The current measured at the working electrode was integrated over the time between 60 and 120 seconds. These experiments were repeated to determine average values of integrated current (charge). The effect of ethylenediaminetetraacetate (EDTA) on electrochemical response was investigated in a similar manner. […] The samples were incubated 10 min at 37 C, and the electrochemical analysis was done as described above for lysozyme.

Converted amounts (≈) assume the structure as drawn. “And” between values parts separate entries of the source, which are not always exact repeats. Equal values may be shown once.

As to `O=C(N[C@H](CO)[C@H](O)c1ccc([N+](=O)[O-])cc1)C(Cl)Cl` [Chloramphenicol], the IC50 – broadly, the concentration that gives 50% inhibition – in the test with E. coli JM105 [1] (Escherichia coli, JM105, from the concentration series of Table 5) was 48 µM. Besides, the MIC in the test on E. coli JM105 [1] (Escherichia coli, JM105, from the concentration series of Table 5, read-out: minimum inhibitory concentration) is 0.48 µM (≈ 0.155 µg/mL). The “Mediated Chronocoulometric Respiration Activity Remaining, Percent” value with E. coli JM105 [1] (chloramphenicol 0.0048 μM) is recorded as 95%; with E. coli JM105 [1] (chloramphenicol 0.048 μM) it was 102%; with E. coli JM105 [1] (chloramphenicol 0.48 μM), 66%; in the test with E. coli JM105 [1] (chloramphenicol 4.8 μM) it was 58%; in the test with E. coli JM105 [1] (chloramphenicol 48 μM) it was 52%; in the test with E. coli JM105 [1] (chloramphenicol 480 μM) it was 35%. Moreover, in the test on E. coli JM105 [1] (chloramphenicol 4800 μM), the “Mediated Chronocoulometric Respiration Activity Remaining, Percent” value is 5%. In addition, the “Mediated Chronocoulometric Respiratory Activity Remaining, Percent” value in test [2] (final concentration 5.00 mM) turned out to be 24%. For the same compound, the activity against growth entry in test [3] is reported as “active against the growth of this strain of Clostridium”.

In the case of `O=C(O)CN(CCN(CC(=O)O)CC(=O)O)CC(=O)O` [EDTA, Ethylenediaminetetraacetate], in the test on E. coli JM105 [4] (5 mM EDTA, blank 38 +/− 2), the “Charge, Average” value was 45 +/− 2 μC. For the same compound, in the test with E. coli JM105 [4] (5 mM EDTA in 50 mM ferricyanide, 10 min at 37 C), the Charge was 46.3 μC and 43.1 μC and 45.2 μC and 43.3 μC.

With “Lysozyme: an enzyme that destroys cell walls and is used extensively in protein purification procedures”, the “Charge, Average” value with E. coli JM105 [4] (lysozyme solution 1.5 mg/mL, blank 32 +/− 3) is 22 +/− 1 μC. Besides, the loss of activity in the test on E. coli JM105 [4] (lysozyme, conditions of Example 3) was 31%; in test [2] (lysozyme, conditions of Example 5) it was 20%. Also, the Charge with E. coli JM105 [4] (lysozyme solution 1.5 mg/mL, 15 min at 0 C, then 10 min at 37 C with 50 mM ferricyanide) was 21.1 μC and 22.8 μC and 21.6 μC. Moreover, in test [2] (final concentration 0.57 mg/mL), the “Mediated Chronocoulometric Respiratory Activity Remaining, Percent” value is 80%.

(Values after patent US6391577B1, “Rapid electrochemical assay for antibiotic and cytotoxic drug susceptibility in microorganisms” (priority 1999, dated 2002).)
